We go through six molecules from patent US7645745B2, “Antiviral nucleosides” (priority 2006, dated 2010).

A short description of series [1]: Caco2 protocol: transport through Caco-2 cell monolayers (Papp). Format: in vitro ADME. As to conditions: human. As for the experimental part:
(§1) To further evaluate potential behavior in human subjects, the transport through Caco-2 cells was evaluated for the putative prodrugs.
(§2) Powders of Krebs-Henseleit buffer, calcium chloride dihydrate, and sodium bicarbonate were purchased from Sigma (St. Louis, Mo.). Caco-2 cells (Passage˜100) were obtained from Roche Basel. Dulbecco's Modified Eagle's Medium (DMEM)/high medium, 4-(2-hydroxyethyl)-1-piperazineethane-sulfonic acid (HEPES), and bovine serum were obtained from JRH Bioscience (Lenexa, Kans.). MEM nonessential amino acids, L-glutamine, penicillin, and streptomycin were obtained from GIBCO Labs, Life Tech. LLC (Grand Island, N.Y.). Snapwell cell culture inserts (6.5 mm diameter, 1.12 cm^2, 0.4 μm pore size) were obtained from Costar (Cambridge, Mass.).
(§3) Culture media consisted of DMEM/high medium supplemented with 5% bovine serum, 25 mM HEPES, 1% MEM non-essential amino acids, 1% L-glutamine, 100 U/mL penicillin, and 100 μg/mL streptomycin. Cultures were passaged every week at a split ratio of 1-3. For the permeability studies, Caco-2 cells at passage number 110-120 were plated at a density of 400,000 cells/cm^2 on Transwell polycarbonate filters in Snapwell inserts and allowed to culture for 7 days prior to use.
(§4) Krebs-Henseleit bicarbonate buffer containing 10 mM glucose and 2.5 mM CaCl2 adjusted to pH 6.5 and 7.4 were prepared per packet instructions. Powder salts were quantitatively dissolved in about 90% of required volume with Millipore water. Calcium chloride dihydrate and sodium bicarbonate were added before pH adjustment with 1N HCl or 1N NaOH. Additional Millipore water was added to bring the solution to final volume. The solution was sterilized by filtration using membrane with a porosity of 0.22 microns and stored in the refrigerator ([…]) until use.
(§5) Snapwells inserts, containing caco-2 monolayers were rinsed in 37° C. equilibrated Krebs-Henseleit pH 7.4 buffer.
(§6) The cell insert was utilized as the diffusion chamber. The pH of the Krebs-Henseleit buffer in the apical and basolateral chambers was 6.5 and 7.4, respectively, and the initial concentration of substrate in apical side was 100 μM. […] The experiments were initiated when the cell inserts with 100 μM compounds in pH 6.5 Krebs-Henseleit buffer were transferred into a new plate with pre-equilibrated buffer in basolateral chamber. Samples from donor side at 0 min, and both donor and receiver sides at 30 min were collected for analysis.
(§7) Lucifer Yellow was used to assess the performance of the diffusion system. […] After 60 min of incubation, 250 μL was removed from the basal chamber and assayed.
(§8) The Papp was calculated using the following formula:
(§9) [formula] Where V is the volume (cm^3) of the receiver solution, A is the surface area (cm^2) of the Snapwell insert, Co is the initial concentration (nM), and dC/dt is the change in concentration in the receiver chamber over time, i.e., the slope (nM/min) of the concentration in the receiver chamber vs. time. Concentrations at each sampling time point were corrected to account for the aliquots removed or transferring of donor inserts to new plates depending on the experiment.

The subject of a further series is Caco-2 cells. The description is as above. As to conditions: Caco-2 cultured 7 days; apical pH 6.5, basolateral pH 7.4; 100 μM apical; 30 min. The class given is in vitro ADME. On the procedure: as §1, §2, §3, §4, §5, §6, §7, §8, §9
Series [2] can be described thus: Determination of pharmacokinetic parameters in rats (oral gavage, plasma LC/MS/MS). Format: in vivo, rat. The note with it: AUC(cyt) of parent cytidine nucleoside in plasma, dose equivalent to 10 mg/kg, male Hanover-Wistar rats. On the procedure: Determination of Pharmacokinetic Parameters in Rats Intact male IGS Wistar Han Rats Crl:WI(GLx/BRL/Han)IGS BR (Hanover-Wistar) rats weighing 200-250 g were used. Groups of three rats were used for each dose level of an experimental compound. Animals were allowed normal access to chow and water throughout the experiment. The test substance was formulated as an aqueous suspension containing Captex 355EP, Capmul MCM, EtOH, and propylene glycol (30:20:20:30) at a dose equivalent to 10 mg/kg of the I-5 and was administered orally by gavage. A blood sample (0.3 mL) was collected from the treated rats at, 0.25, 0.5, 1, 3, 5, and 8 h from a jugular cannula and at 24 h by cardiac puncture. Potassium oxalate/NaF were added to the samples which were stored on ice during sampling procedure. The samples were spun in a refrigerated centrifuge at […] as soon as possible and the plasma samples were stored in a −80° C. freezer until analysis. Aliquots of plasma (0.05 mL) were mixed with 0.1 mL of acetonitrile. Internal standard (0.05 mL in water) and 0.02 mL blank solvent were added. […] Sample Analysis—Prodrugs were analyzed using high-performance liquid chromatography with tandem mass-spectrometry (HPLC/MS/MS). […]

The test system of a further series is HCV. The note with it: monotherapy; cited from earlier work.

SMILES strings stand for the structures. Read-outs that look alike come from different tables or passages of the source.

Broadly, the melting point is the temperature of the solid-liquid transition. `CCC(=O)OC[C@H]1O[C@@H](n2ccc(N)nc2=O)[C@](C)(O)[C@@H]1OC(=O)CC.Cl` [I-1, Propionic Acid (2R,3R,4R,5R)-5-(4-amino-2-oxo-2H-pyrimidin-1-yl)-4-hydroxy-4-methyl-3-propionyloxy-tetrahydro-furan-2-ylmethyl ester; Hydrochloride Salt] gave a melting point of 164.5 to 167 °C. For the same molecule, in series [1] (Caco-2), the Papp A→B at 30 min, 100 μM was found to be 0.11 ×10⁻⁶ cm/s.
With `CC(C)C(=O)OC[C@H]1O[C@@H](n2ccc(N)nc2=O)[C@](C)(O)[C@@H]1OC(=O)C(C)C.Cl` [I-2, Iso-butyric Acid (2R,3R,4R,5R)-5-(4-amino-2-oxo-2H-pyrimidin-1-yl)-4-hydroxy-3-isobutyryloxy-4-methyl-tetrahydro-furan-2-ylmethyl ester; Hydrochloride Salt], in the series on Caco-2 cells, the “Caco2 (7 day)” value worked out at 1.06 cm/sec × 10^−6. Besides, the “Rat AUC” value in series [2] worked out at 5600 ± 300 ng·h/mL.
In turn, `CCCCC(=O)OC[C@H]1O[C@@H](n2ccc(N)nc2=O)[C@](C)(O)[C@@H]1OC(=O)CCCC.Cl` [I-3, Pentanoic Acid (2R,3R,4R,5R)-5-(4-amino-2-oxo-2H-pyrimidin-1-yl)-4-hydroxy-4-methyl-3-pentanoyloxy-tetrahydro-furan-2-ylmethyl ester; Hydrochloride Salt] registered a melting point of 158.2 to 159.2 °C. In series [1] (Caco-2), this molecule showed a Papp A→B at 30 min, 100 μM of 4.21 ×10⁻⁶ cm/s.
In turn, `C[C@@]1(O)[C@H](O)[C@@H](CO)O[C@H]1n1ccc(N)nc1=O` [I-4, 4-amino-1-((2R,3R,4R,5R)-3,4-dihydroxy-5-hydroxymethyl-3-methyl-tetrahydro-furan-2-yl)-1H-pyrimidin-2-one, reference compound] returned a Papp A→B at 30 min, 100 μM in series [1] (Caco-2) of 0.76 ×10⁻⁶ cm/s.
Consider `CC(C)C(N)C(=O)O[C@@H]1[C@@H](CO)O[C@@H](n2ccc(N)nc2=O)[C@]1(C)O` (stereo partly drawn) [I-5, reference compound], for which the Papp A→B at 30 min, 100 μM in series [1] (Caco-2 cultured 7 days, apical pH 6.5, basolateral pH 7.4, 100 μM apical, 30 min, read-out: Caco2 (7 day)) is 0.12 ×10⁻⁶ cm/s.
In the case of `NC(=O)c1ncn([C@@H]2O[C@H](CO)[C@@H](O)[C@H]2O)n1` [ribavirin, 1-((2R,3R,4S,5R)-3,4-Dihydroxy-5-hydroxymethyl-tetrahydro-furan-2-yl)-1H-[1,2,4]triazole-3-carboxylic acid amide], in the series with HCV, the “patients with serum amino transferase levels reduced to normal” value is on record as 40%.
